Data taken from US8058242B2, “Chimeric proteins with natriuretic activity” (The University of Queensland, priority 2004, dated 2011).
Positions of bridges follow the written chain, without caps; N, C: chain ends. Non-standard residues stand in square brackets, D forms with d. No end group written: not given here. Nle = CCCC[C@H](N)C(=O)O

Tests used:
[1] = system: denuded aortic rings, GC A receptor; test: Relaxation of noradrenaline constricted endothelium-denuded aortic rings (Example 11); parameters: species or system rat; settings: GC-A mediated
Experimental: Male Sprague Dawley rats were killed and the descending thoracic aorta rapidly removed and flushed with physiological solution. After being cleared of adhering fat and connective tissue, 5 mm rings were mounted under 10 g resting tension, between two stainless steel hooks, in organ baths (37° C.) containing carbogenated (95% O2 and 5% CO2) physiological salt solution of the following composition (mM): NaCl, 118.4; NaHCO3, 25; glucose, 11; KCl, 4.7; MgSO4, 1.2; KH2PO4, 1.2 and CaCl2, 2.5. The lower hook was attached to a tissue holder and the upper hook to a force displacement transducer (Grass FTO3). Where indicated endothelial cells were removed by gentle rubbing of the intimal surface with a wire. To confirm the presence or absence of endothelial cells, tissues were precontracted with a sub-maximal concentration of phenylephrine (0.3 μM) and the response to acetylcholine (ACh, 10 μM) observed. Ach-induced relaxation greater than 80% of maximum indicated the presence of endothelium; whereas Ach-induced relaxation less than 10% indicated the absence of endothelium. Ring preparations under resting tension were conditioned by two contraction/relaxation cycles with 40 mM KCl, contracted by a third application of 40 mM KCl and then relaxed with different doses of the venom peptides. Responses were expressed as a percentage relaxation of the precontraction by KCl.
In addition to the peptides tested in example 3, a series of 13 analogs corresponding to the 2a, 2b and 2c grouping of peptides were examined for their ability to dilate noradrenaline constricted aortic rings. The degree of constriction was expressed as a percentage of the KCl induced constriction. The aortic rings were prepared in a manner similar to the method described in example 3. […]. In each case there were at least 3 separate aortic rings tested per peptide and all were denuded of endothelium to ensure responses were confined to the GC A receptor.

conscious rabbits = test: Blood pressure and heart rate in conscious rabbits, intravenous infusion dose-response (Example 8)
[2] = after a 2 hour recovery period, Table 10B
[3] = after 1 hour recovery period, Table 10A

Substance | Mean relaxation SEM of denuded aortic rings expressed as % of KCl response [1] | recovery of MAP, in words (conscious rabbits; 2 hours after infusion) | MAP at final dose (conscious rabbits; Table 10B) | Recovery (MAP) (conscious rabbits; [2]) | Recovery Delta SED (MAP) (conscious rabbits; [2]) | Treatment Effect, change of mean blood pressure during the infusion (conscious rabbits; final dose, Table 10B, groups 2B and 2C) | Recovery (MAP) (conscious rabbits; [3]) | Recovery Delta SED (MAP) (conscious rabbits; [3]) | reduction of MAP compared to vehicle, in words (conscious rabbits; highest dose) | MAP at final dose (conscious rabbits; highest dose, Table 10A) | Treatment Effect, change of mean blood pressure during the infusion (conscious rabbits; highest dose, Table 10A, groups 1, 2A and 3) | recovery of MAP from the hypotension, in words (conscious rabbits; one hour after the end of infusion)
SDSKIGNGCFGFPLDRIGSVSGLGCNRInQNPPKKFSGE (SDSKIGNGCFGFPLDRIGSVSGLGCNRI[Nle]QNPPKKFSGE; disulfide 9-25 (inferred); ends not checked) [TNPc Nle] | 61.0 ± 2.5% | partially recovered | 53.4 mm Hg | 64.5 mm Hg | 11.0 ± 3.0 mm Hg | −13.6 mm Hg | – | – | – | – | – | –
SDSKIGNGCFGFPLDRIGSVSGLGCNRPMQNPPKKFSGE (A portion of a natriuretic peptide) [TNPc I28P] | 52.6 ± 5.0% | – | – | – | – | – | 66.6 mm Hg | 1.2 ± 2.4 mm Hg | did significantly reduce MAP | 65.4 mm Hg | −9.1 mm Hg | did recover from the hypotension
